Reference: PMC7265341, “Quantifying CDK inhibitor selectivity in live cells” (Nature Communications, 2020)
Where two headings read alike, the source gives them in different places.

How the values were obtained:
[1] = target: CDK14/Cyclin Y (Homo sapiens, UniProt O94921); assay: NanoBRET live-cell target engagement, CDK14-NanoLuc/Cyclin Y in HEK-293; format: binding; details: CDK14/Y; for IC50: read-out: IC50
[2] = target: CDK15/Cyclin Y (Homo sapiens, UniProt Q96Q40); assay: NanoBRET live-cell target engagement, NanoLuc-CDK15/Cyclin Y in HEK-293; format: binding; details: CDK15/Y; for IC50: read-out: IC50
[3] = target: CDK12/Cyclin K (Homo sapiens, UniProt Q9NYV4); assay: NanoBRET live-cell target engagement, CDK12-NanoLuc/Cyclin K in HEK-293; format: binding; details: CDK12/K
Sequence of CDK12/Cyclin K (Q9NYV4 1-1481 isoform Q9NYV4-2): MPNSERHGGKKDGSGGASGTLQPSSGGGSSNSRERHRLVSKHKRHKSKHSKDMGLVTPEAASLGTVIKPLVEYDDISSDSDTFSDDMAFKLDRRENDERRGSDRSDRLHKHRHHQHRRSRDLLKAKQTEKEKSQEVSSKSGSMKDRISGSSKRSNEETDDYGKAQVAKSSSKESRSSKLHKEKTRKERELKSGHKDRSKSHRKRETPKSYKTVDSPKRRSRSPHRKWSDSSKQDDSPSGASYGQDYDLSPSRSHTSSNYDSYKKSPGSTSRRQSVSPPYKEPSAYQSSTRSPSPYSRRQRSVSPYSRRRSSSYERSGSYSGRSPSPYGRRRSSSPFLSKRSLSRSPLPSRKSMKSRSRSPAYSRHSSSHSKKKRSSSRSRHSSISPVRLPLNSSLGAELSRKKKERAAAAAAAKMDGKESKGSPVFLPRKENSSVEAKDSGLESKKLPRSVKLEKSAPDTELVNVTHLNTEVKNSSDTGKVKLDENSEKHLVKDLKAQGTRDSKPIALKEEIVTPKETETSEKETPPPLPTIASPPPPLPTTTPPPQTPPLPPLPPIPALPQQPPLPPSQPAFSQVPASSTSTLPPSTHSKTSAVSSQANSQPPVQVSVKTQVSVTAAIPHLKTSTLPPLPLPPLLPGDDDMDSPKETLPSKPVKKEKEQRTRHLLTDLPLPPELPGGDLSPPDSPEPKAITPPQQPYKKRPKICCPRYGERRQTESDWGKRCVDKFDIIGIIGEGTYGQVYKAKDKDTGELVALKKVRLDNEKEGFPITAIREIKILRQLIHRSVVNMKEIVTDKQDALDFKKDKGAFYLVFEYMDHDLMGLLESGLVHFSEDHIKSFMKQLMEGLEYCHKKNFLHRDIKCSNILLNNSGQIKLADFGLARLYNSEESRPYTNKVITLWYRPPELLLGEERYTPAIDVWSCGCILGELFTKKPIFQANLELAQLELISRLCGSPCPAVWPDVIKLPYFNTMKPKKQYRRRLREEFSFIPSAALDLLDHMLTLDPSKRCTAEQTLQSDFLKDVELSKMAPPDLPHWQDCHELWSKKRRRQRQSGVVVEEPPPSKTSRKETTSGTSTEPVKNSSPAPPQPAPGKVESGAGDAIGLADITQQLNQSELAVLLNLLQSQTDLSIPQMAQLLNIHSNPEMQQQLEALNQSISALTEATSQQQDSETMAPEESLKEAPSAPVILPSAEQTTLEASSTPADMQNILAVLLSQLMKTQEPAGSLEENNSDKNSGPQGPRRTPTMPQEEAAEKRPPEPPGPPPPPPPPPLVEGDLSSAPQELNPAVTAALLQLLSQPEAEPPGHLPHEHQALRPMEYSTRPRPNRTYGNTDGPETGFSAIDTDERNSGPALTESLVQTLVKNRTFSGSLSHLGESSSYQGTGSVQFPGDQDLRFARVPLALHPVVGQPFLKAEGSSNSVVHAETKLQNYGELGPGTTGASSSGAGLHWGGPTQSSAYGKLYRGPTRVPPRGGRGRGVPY
Sequence of CDK12/Cyclin K (O75909 whole entry partner): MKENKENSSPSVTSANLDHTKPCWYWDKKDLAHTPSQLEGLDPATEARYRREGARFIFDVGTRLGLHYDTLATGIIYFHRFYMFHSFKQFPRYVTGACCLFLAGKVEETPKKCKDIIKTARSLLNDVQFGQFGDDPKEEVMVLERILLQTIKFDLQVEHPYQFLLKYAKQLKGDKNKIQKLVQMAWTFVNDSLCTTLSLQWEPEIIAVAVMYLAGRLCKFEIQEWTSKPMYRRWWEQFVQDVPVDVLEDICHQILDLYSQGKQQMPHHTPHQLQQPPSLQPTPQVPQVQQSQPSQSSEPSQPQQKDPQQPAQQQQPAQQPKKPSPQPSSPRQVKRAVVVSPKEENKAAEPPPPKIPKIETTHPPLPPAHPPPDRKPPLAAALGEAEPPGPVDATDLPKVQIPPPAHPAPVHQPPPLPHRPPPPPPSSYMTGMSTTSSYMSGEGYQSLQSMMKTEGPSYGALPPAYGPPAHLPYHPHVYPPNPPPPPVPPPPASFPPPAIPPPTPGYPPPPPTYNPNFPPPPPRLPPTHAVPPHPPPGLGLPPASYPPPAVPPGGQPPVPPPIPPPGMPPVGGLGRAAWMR

[4] = target: CDK18/Cyclin Y (Homo sapiens, UniProt Q07002); assay: NanoBRET live-cell target engagement, CDK18-NanoLuc/Cyclin Y in HEK-293; format: binding; details: CDK18/Y
[5] = target: CDK11B/Cyclin L2 (Homo sapiens, UniProt P21127); assay: NanoBRET live-cell target engagement, CDK11B-NanoLuc/Cyclin L2 in HEK-293; format: binding; details: CDK11b/L2
Sequence of CDK11B/Cyclin L2 (P21127 1-782 isoform P21127-2): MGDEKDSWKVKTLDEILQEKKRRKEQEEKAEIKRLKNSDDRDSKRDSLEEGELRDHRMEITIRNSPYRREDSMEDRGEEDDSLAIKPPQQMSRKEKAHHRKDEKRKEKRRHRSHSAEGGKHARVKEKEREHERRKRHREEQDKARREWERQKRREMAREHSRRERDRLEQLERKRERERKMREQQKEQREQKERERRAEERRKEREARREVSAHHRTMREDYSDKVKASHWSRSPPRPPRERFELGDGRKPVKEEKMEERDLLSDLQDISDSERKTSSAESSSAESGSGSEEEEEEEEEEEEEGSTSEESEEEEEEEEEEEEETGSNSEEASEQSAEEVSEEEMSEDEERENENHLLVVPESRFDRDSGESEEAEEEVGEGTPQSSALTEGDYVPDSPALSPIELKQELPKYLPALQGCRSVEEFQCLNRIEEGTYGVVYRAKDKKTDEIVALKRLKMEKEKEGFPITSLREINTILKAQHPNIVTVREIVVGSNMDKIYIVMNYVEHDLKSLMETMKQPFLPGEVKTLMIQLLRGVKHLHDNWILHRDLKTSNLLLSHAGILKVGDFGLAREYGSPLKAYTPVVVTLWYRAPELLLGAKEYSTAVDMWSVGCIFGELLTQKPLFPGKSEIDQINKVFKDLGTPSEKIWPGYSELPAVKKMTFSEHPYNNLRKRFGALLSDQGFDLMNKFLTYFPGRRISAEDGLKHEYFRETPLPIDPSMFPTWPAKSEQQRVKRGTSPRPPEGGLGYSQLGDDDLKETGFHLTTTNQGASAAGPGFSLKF

[6] = target: CDK10/Cyclin L2 (Homo sapiens, UniProt Q15131); assay: NanoBRET live-cell target engagement, CDK10-NanoLuc/Cyclin L2 in HEK-293; details: CDK10/L2
Sequence of CDK10/Cyclin L2 (Q15131 whole entry): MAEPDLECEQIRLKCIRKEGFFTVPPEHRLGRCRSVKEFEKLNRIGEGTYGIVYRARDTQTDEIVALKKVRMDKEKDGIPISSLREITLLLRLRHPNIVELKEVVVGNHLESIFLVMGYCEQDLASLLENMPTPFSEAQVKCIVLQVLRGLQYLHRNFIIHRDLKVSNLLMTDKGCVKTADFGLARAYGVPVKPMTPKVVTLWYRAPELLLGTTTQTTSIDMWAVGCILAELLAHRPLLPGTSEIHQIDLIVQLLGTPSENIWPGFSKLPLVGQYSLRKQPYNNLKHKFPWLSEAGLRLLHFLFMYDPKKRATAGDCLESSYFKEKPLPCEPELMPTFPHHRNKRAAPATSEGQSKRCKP

[7] = target: CDK4/Cyclin D1 (Homo sapiens, UniProt P11802); assay: NanoBRET live-cell target engagement, NanoLuc-CDK4/Cyclin D1 in HEK-293; format: binding; details: CDK4/D1; for IC50: read-out: IC50
[8] = target: CDK19/Cyclin C (Homo sapiens, UniProt Q9BWU1); assay: NanoBRET live-cell target engagement, NanoLuc-CDK19/Cyclin C in HEK-293
[9] = target: CDK6/Cyclin D1 (Homo sapiens, UniProt Q00534); assay: NanoBRET live-cell target engagement, NanoLuc-CDK6/Cyclin D1 in HEK-293; format: binding; details: CDK6/D1; for IC50: read-out: IC50
[10] = target: CDK3/Cyclin E1 (Homo sapiens, UniProt Q00526); assay: NanoBRET live-cell target engagement, CDK3-NanoLuc/Cyclin E1 in HEK-293; format: binding; details: CDK3/E1
[11] = target: CDK17/Cyclin Y (Homo sapiens, UniProt Q00537); assay: NanoBRET live-cell target engagement, CDK17-NanoLuc/Cyclin Y in HEK-293; format: binding; details: CDK17/Y; for IC50: read-out: IC50
[12] = target: CDK16/Cyclin Y (Homo sapiens, UniProt Q00536); assay: NanoBRET live-cell target engagement, CDK16-NanoLuc/Cyclin Y in HEK-293; format: binding; details: CDK16/Y; for IC50: read-out: IC50
Sequence of CDK16/Cyclin Y (Q00536 whole entry): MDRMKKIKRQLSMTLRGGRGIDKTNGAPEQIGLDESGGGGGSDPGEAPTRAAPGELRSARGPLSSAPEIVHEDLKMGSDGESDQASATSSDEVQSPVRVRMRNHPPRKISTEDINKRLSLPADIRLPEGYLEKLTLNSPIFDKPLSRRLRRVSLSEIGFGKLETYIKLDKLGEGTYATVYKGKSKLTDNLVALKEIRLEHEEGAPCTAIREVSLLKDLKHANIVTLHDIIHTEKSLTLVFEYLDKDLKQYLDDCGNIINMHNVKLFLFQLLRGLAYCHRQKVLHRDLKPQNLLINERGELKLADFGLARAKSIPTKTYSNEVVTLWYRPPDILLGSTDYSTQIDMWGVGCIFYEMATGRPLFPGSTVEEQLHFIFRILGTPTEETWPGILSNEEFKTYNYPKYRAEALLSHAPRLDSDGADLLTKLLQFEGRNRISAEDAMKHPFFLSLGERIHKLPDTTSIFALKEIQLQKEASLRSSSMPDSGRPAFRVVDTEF
Sequence of CDK16/Cyclin Y (Q8ND76 whole entry partner): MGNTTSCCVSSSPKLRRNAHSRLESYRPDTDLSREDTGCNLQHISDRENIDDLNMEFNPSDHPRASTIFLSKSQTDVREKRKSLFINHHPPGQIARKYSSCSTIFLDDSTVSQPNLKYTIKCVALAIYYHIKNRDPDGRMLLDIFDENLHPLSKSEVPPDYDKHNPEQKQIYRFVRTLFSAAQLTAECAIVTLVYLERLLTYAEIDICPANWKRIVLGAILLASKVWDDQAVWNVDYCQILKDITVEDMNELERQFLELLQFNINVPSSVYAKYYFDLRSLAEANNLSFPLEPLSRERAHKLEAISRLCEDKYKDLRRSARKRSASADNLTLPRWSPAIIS

[13] = target: CDK20/Cyclin H (Homo sapiens, UniProt Q8IZL9); assay: NanoBRET live-cell target engagement, NanoLuc-CDK20/Cyclin H in HEK-293; format: binding; details: CDK20/H
[14] = target: CDK13/Cyclin K (Homo sapiens, UniProt Q14004); assay: NanoBRET live-cell target engagement, CDK13-NanoLuc/Cyclin K in HEK-293; format: binding; details: CDK13/K
[15] = target: T1, CDK11A/Cyclin L2 (Homo sapiens, UniProt Q9UQ88); assay: NanoBRET live-cell target engagement, CDK11A-NanoLuc/Cyclin L2 in HEK-293; format: binding; details: CDK11a/L2
T1 sequence (Q9UQ88 1-783): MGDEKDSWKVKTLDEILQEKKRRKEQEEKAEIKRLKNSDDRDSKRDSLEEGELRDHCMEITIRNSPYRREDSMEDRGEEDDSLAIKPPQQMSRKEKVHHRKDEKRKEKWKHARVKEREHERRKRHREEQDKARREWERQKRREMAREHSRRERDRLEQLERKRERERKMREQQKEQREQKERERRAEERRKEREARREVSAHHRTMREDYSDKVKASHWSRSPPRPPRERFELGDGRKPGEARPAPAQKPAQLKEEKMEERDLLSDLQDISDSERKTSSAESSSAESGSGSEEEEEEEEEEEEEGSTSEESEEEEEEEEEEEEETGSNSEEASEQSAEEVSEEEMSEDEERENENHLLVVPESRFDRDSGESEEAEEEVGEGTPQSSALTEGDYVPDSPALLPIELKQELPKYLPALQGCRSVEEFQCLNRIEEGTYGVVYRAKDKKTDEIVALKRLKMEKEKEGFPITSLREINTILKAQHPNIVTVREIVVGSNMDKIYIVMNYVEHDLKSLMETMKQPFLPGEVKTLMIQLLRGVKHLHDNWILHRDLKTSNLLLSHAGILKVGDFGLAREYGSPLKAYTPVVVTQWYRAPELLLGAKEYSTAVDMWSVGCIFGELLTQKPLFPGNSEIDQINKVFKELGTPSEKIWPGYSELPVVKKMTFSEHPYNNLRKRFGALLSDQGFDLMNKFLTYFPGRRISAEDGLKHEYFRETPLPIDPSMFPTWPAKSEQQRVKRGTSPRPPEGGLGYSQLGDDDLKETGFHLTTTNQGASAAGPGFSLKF

[16] = target: CDK8/Cyclin C (Homo sapiens, UniProt P49336); assay: NanoBRET live-cell target engagement, NanoLuc-CDK8/Cyclin C in HEK-293; format: binding; details: CDK8/C
Sequence of CDK8/Cyclin C (P49336 whole entry): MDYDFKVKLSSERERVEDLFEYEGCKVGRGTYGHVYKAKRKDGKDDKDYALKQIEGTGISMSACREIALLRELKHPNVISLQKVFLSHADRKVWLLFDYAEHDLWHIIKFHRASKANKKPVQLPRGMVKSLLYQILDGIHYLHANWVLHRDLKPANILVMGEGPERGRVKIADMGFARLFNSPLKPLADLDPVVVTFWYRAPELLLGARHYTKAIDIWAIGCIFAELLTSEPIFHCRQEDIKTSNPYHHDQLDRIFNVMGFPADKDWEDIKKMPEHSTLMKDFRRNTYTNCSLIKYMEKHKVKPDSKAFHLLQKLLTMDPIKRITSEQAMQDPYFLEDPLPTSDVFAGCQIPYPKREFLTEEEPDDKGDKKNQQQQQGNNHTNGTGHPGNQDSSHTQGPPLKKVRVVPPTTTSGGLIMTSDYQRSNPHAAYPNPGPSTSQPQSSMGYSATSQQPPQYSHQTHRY
Sequence of CDK8/Cyclin C (P24863 whole entry partner): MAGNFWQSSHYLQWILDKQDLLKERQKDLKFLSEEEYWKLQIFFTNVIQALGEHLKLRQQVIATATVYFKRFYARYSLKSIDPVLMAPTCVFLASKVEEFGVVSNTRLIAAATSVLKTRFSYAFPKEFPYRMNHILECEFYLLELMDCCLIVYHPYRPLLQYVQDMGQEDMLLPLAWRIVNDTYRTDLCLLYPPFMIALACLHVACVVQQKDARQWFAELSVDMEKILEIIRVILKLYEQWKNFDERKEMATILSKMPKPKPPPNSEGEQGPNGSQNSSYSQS

[17] = target: CDK5/CDK5R1 (Homo sapiens, UniProt Q00535); assay: NanoBRET live-cell target engagement, CDK5-NanoLuc/CDK5R1 in HEK-293; format: binding; details: CDK5/CDK5R1

CNc1nc(C)c(-c2nc(Nc3cccc(S(N)(=O)=O)c3)ncc2F)s1 [CDKI-73]
Inhibition at 10µM (%) ([1]; average): 92.7% | IC50 ([1]; average (± SEM where n=3)): 48 nM | Inhibition at 10µM (%) ([1]; experiment 1): 93.7% | IC50 ([1]; experiment 1): 59 nM | Inhibition at 10µM (%) ([1]; experiment 2): 91.8% | IC50 ([1]; experiment 2): 37 nM | Inhibition at 10µM (%) ([2]; average): 92.4% | IC50 ([2]; average (± SEM where n=3)): 80 nM | Inhibition at 10µM (%) ([2]; experiment 1): 92.6% | IC50 ([2]; experiment 1): 107 nM | Inhibition at 10µM (%) ([2]; experiment 2): 92.2% | IC50 ([2]; experiment 2): 54 nM | Inhibition at 10µM (%) ([3]; average): 42.5% | Inhibition at 10µM (%) ([3]; experiment 1): 31.7% | Inhibition at 10µM (%) ([3]; experiment 2): 53.2% | Inhibition at 10µM (%) ([4]; experiment 1): 95.5% | Inhibition at 10µM (%) ([4]; experiment 2): 102.2% | Inhibition at 10µM (%) ([5]; average): 50.2% | Inhibition at 10µM (%) ([5]; experiment 1): 41.6% | Inhibition at 10µM (%) ([5]; experiment 2): 58.7% | Inhibition at 10µM (%) ([6]; average): 40.1% | Inhibition at 10µM (%) ([6]; experiment 1): 36.9% | Inhibition at 10µM (%) ([6]; experiment 2): 43.3% | Inhibition at 10µM (%) ([7]; average): 93.8% | IC50 ([7]; average (± SEM where n=3)): 12 nM | Inhibition at 10µM (%) ([7]; experiment 1): 99.0% | IC50 ([7]; experiment 1): 13 nM | Inhibition at 10µM (%) ([7]; experiment 2): 88.5% | IC50 ([7]; experiment 2): 11 nM | Inhibition at 10µM (%) ([8]; CDK19/C, average): 79.0% | IC50 ([8]; CDK19/C, experiment 1): 507 nM | Inhibition at 10µM (%) ([8]; CDK19/C, experiment 1): 76.8% | IC50 ([8]; CDK19/C, experiment 2): 120 nM | Inhibition at 10µM (%) ([8]; CDK19/C, experiment 2): 81.3% | IC50 ([8]; CDK19/Y (so in the source), average (± SEM where n=3)): 310 nM | Inhibition at 10µM (%) ([9]; average): 99.1% | IC50 ([9]; average (± SEM where n=3)): 14 nM | Inhibition at 10µM (%) ([9]; experiment 1): 98.8% | IC50 ([9]; experiment 1): 22 nM | Inhibition at 10µM (%) ([9]; experiment 2): 99.3% | IC50 ([9]; experiment 2): 6.6 nM | Inhibition at 10µM (%) ([10]; average): 97.0% | Inhibition at 10µM (%) ([10]; experiment 1): 94.8% | Inhibition at 10µM (%) ([10]; experiment 2): 99.2% | Inhibition at 10µM (%) ([11]; average): 92.2% | IC50 ([11]; average (± SEM where n=3)): 8.3 nM | Inhibition at 10µM (%) ([11]; experiment 1): 92.4% | IC50 ([11]; experiment 1): 7.8 nM | Inhibition at 10µM (%) ([11]; experiment 2): 92.0% | IC50 ([11]; experiment 2): 8.8 nM | IC50 ([12]; average (± SEM where n=3)): 4.1 nM | Inhibition at 10µM (%) ([12]; experiment 1): 92.7% | IC50 ([12]; experiment 1): 3.2 nM | Inhibition at 10µM (%) ([12]; experiment 2): 92.0% | IC50 ([12]; experiment 2): 4.9 nM | Inhibition at 10µM (%) ([13]; experiment 1): 73.0% | Inhibition at 10µM (%) ([13]; experiment 2): 44.8% | Inhibition at 10µM (%) ([14]; average): 37.1% | Inhibition at 10µM (%) ([14]; experiment 1): 35.9% | Inhibition at 10µM (%) ([14]; experiment 2): 38.4% | Inhibition at 10µM (%) ([15]; average): 42.8% | Inhibition at 10µM (%) ([15]; experiment 1): 32.6% | Inhibition at 10µM (%) ([15]; experiment 2): 53.0% | Inhibition at 10µM (%) ([16]; average): 89.5% | Inhibition at 10µM (%) ([16]; experiment 1): 81.5% | Inhibition at 10µM (%) ([16]; experiment 2): 97.4% | Inhibition at 10µM (%) ([17]; average): 90.6% | Inhibition at 10µM (%) ([17]; experiment 1): 88.4% | Inhibition at 10µM (%) ([17]; experiment 2): 92.7%
